Laboratory results reported in the supplement of paper PMC10307832.

Assays:
Experiment in all cases: relative viability (nuclei count vs DMSO), 5 days (fraction); higher = more cells survive
Bosutinib + Vorinostat = compound: COc1cc(Nc2c(C#N)cnc3cc(OCCCN4CCN(C)CC4)c(OC)cc23)c(Cl)cc1Cl [Bosutinib] + O=C(CCCCCCC(=O)Nc1ccccc1)NO [Vorinostat] (partner 1 µM)
In short: (§1)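 The day after seeding in 1536-well plates, lung cancer cell lines were treated by pin tool with a single drug, or with a fixed anchor-drug dose together with five library-drug doses (not always all listed) in √10 steps. After 5 days, a combined fix-and-stain solution (final 0.05% Triton X-100, 1% formaldehyde, 1 ug/ml Hoechst) was added. Nuclei counted on 4× images gave relative viability as treated counts over vehicle counts, reported as the median of duplicate plates.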

Bosutinib + Foretinib = compound: COc1cc(Nc2c(C#N)cnc3cc(OCCCN4CCN(C)CC4)c(OC)cc23)c(Cl)cc1Cl [Bosutinib] + COc1cc2c(Oc3ccc(NC(=O)C4(C(=O)Nc5ccc(F)cc5)CC4)cc3F)ccnc2cc1OCCCN1CCOCC1 [Foretinib] (partner 0.25 µM)
In short: as §1

Bosutinib + Bortezomib = compound: COc1cc(Nc2c(C#N)cnc3cc(OCCCN4CCN(C)CC4)c(OC)cc23)c(Cl)cc1Cl [Bosutinib] + CC(C)C[C@H](NC(=O)[C@H](Cc1ccccc1)NC(=O)c1cnccn1)B(O)O [Bortezomib] (partner 0.002 µM)
In short: as §1

Bosutinib + Tozasertib = compound: COc1cc(Nc2c(C#N)cnc3cc(OCCCN4CCN(C)CC4)c(OC)cc23)c(Cl)cc1Cl [Bosutinib] + Cc1cc(Nc2cc(N3CCN(C)CC3)nc(Sc3ccc(NC(=O)C4CC4)cc3)n2)n[nH]1 [Tozasertib] (partner 0.1 µM)
In short: as §1

Bosutinib + Luminespib = compound: COc1cc(Nc2c(C#N)cnc3cc(OCCCN4CCN(C)CC4)c(OC)cc23)c(Cl)cc1Cl [Bosutinib] + CCNC(=O)c1noc(-c2cc(C(C)C)c(O)cc2O)c1-c1ccc(CN2CCOCC2)cc1 [Luminespib] (partner 0.01 µM)
In short: as §1

| Cell Line | relative viability (Bosutinib + Vorinostat; first compound 0.01 µM) | relative viability (Bosutinib + Vorinostat; first compound 0.03162 µM) | relative viability (Bosutinib + Vorinostat; first compound 0.1 µM) | relative viability (Bosutinib + Vorinostat; first compound 1 µM) | relative viability (Bosutinib + Foretinib; first compound 0.01 µM) | relative viability (Bosutinib + Foretinib; first compound 0.03162 µM) | relative viability (Bosutinib + Foretinib; first compound 0.1 µM) | relative viability (Bosutinib + Foretinib; first compound 1 µM) | relative viability (Bosutinib + Bortezomib; first compound 0.01 µM) | relative viability (Bosutinib + Bortezomib; first compound 0.03162 µM) | relative viability (Bosutinib + Bortezomib; first compound 0.1 µM) | relative viability (Bosutinib + Bortezomib; first compound 1 µM) | relative viability (Bosutinib + Tozasertib; first compound 0.01 µM) | relative viability (Bosutinib + Tozasertib; first compound 0.03162 µM) | relative viability (Bosutinib + Tozasertib; first compound 0.1 µM) | relative viability (Bosutinib + Tozasertib; first compound 1 µM) | relative viability (Bosutinib + Luminespib; first compound 0.01 µM) | relative viability (Bosutinib + Luminespib; first compound 0.03162 µM) | relative viability (Bosutinib + Luminespib; first compound 0.1 µM) | relative viability (Bosutinib + Luminespib; first compound 1 µM) |
| --- | --- | --- | --- | --- | --- | --- | --- | --- | --- | --- | --- | --- | --- | --- | --- | --- | --- | --- | --- | --- |
| LU99A | 0.51 | 0.495 | 0.573 | 0.483 | 0.853 | 1.04 | 0.967 | 1.07 | 1.16 | 1.17 | 1.33 | 0.938 | 0.275 | 0.276 | 0.291 | 0.311 | 0.231 | 0.258 | 0.242 | 0.242 |
| LXF-289 | 0.808 | 0.852 | 0.792 | 0.758 | 0.926 | 1 | 0.979 | 0.913 | 1 | 1.03 | 1.02 | 0.991 | 0.183 | 0.191 | 0.238 | 0.179 | 0.718 | 0.674 | 0.702 | 0.689 |
| NCI-H23 | 0.779 | 0.622 | 0.651 | 0.619 | 0.939 | 1.03 | 0.979 | 0.723 | 1 | 1.21 | 1.04 | 1.05 | 0.368 | 0.345 | 0.404 | 0.364 | 0.197 | 0.205 | 0.204 | 0.195 |
| NCI-H322M | 0.751 | 0.856 | 0.857 | 0.54 | 1.04 | 0.867 | 0.881 | 0.414 | 1.23 | 1.14 | 1.35 | 1.22 | 0.472 | 0.46 | 0.497 | 0.315 | 0.771 | 0.754 | 0.793 | 0.333 |
| NCI-H441 | 0.827 | 0.885 | 0.936 | 0.835 | 1.03 | 1.21 | 1.22 | 1.25 | 0.579 | 0.726 | 0.44 | 0.806 | 0.673 | 0.589 | 0.599 | 0.823 | 0.362 | 0.425 | 0.448 | 0.412 |
| NCI-H460 | 0.719 | 0.717 | 0.761 | 0.775 | 1.01 | 1.03 | 1 | 0.855 | 1.17 | 1.04 | 1.01 | 0.91 | 0.555 | 0.545 | 0.479 | 0.112 | 0.0343 | 0.0293 | 0.0274 | 0.0252 |
| NCI-H520 | 0.729 | 0.735 | 0.724 | 0.708 | 0.929 | 0.857 | 0.789 | 0.551 | 0.771 | 0.419 | 0.52 | 0.396 | 0.407 | 0.446 | 0.39 | 0.347 | 0.199 | 0.236 | 0.223 | 0.214 |
| NCI-H596 | 0.685 | 0.557 | 0.509 | 0.573 | 0.745 | 0.857 | 0.721 | 0.855 | 1 | 0.967 | 1.11 | 1.02 | 1.06 | 0.828 | 0.893 | 0.788 | 0.935 | 0.938 | 0.959 | 1.1 |
| NCI-H647 | 0.584 | 0.568 | 0.667 | 0.642 | 1.28 | 1.17 | 1.31 | 0.778 | 1.06 | 1.06 | 0.919 | 0.405 | 0.38 | 0.203 | 0.389 | 0.201 | 0.202 | 0.284 | 0.159 | 0.183 |
| NCI-H650 | 0.446 | 0.356 | 0.483 | 0.415 | 1.05 | 1 | 1.09 | 1.04 | 0.875 | 0.854 | 0.858 | 0.962 | 0.74 | 0.772 | 0.721 | 0.801 | 0.838 | 0.713 | 0.744 | 0.898 |
| NCI-H661 | 0.784 | 0.912 | 0.866 | 0.829 | 1.07 | 0.995 | 0.968 | 0.596 | 1.05 | 0.802 | 0.733 | 0.446 | 0.34 | 0.362 | 0.385 | 0.425 | 0.947 | 0.964 | 0.963 | 0.758 |
| NCI-H727 | 1.04 | 1.27 | 1.33 | 0.973 | 0.91 | 0.859 | 0.639 | 0.568 | 0.913 | 0.777 | 0.969 | 0.71 | 0.577 | 0.598 | 0.549 | 0.441 | 0.233 | 0.477 | 0.55 | 0.504 |
| NCI-H838 | 0.741 | 0.766 | 0.755 | 0.746 | 1.08 | 1.02 | 0.989 | 0.598 | 0.97 | 0.794 | 0.78 | 0.577 | 0.306 | 0.294 | 0.263 | 0.215 | 0.327 | 0.269 | 0.385 | 0.237 |
| NCI-H1355 | 0.655 | 0.694 | 0.708 | 0.625 | 0.956 | 0.973 | 1.01 | 0.917 | 1.27 | 1.24 | 1.3 | 1.21 | 0.549 | 0.603 | 0.524 | 0.475 | 0.752 | 0.691 | 0.761 | 0.566 |
| NCI-H1437 | 0.875 | 0.793 | 0.842 | 0.805 | 1.23 | 1.2 | 1.14 | 1.1 | 0.599 | 0.485 | 0.464 | 0.436 | 0.401 | 0.426 | 0.407 | 0.344 | 1.02 | 1.11 | 1.1 | 1.03 |
